In patent US12077503B2, “Substituted cyclic amides and their use as herbicides” (FMC CORPORATION, priority 2015, dated 2024):

Legend:
Type in all cases: in vivo
[1] = test system: ryegrass, Italian (Italian ryegrass, Lolium multiflorum); assay: Test A preemergence
In short: (§1)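 Seeds sprayed preemergence with a directed soil spray, or plants at 2 to 10 cm height and one- to two-leaf stage sprayed postemergence, with test chemicals in a non-phytotoxic solvent mixture containing surfactant, in loam soil–sand blend. Injury rated visually against untreated controls after about 10 d in greenhouse, 0 (no effect) to 100 (complete control).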

Kochia (Kochia scoparia) [2] = assay: Test A preemergence
In short: as §1

[3] = test system: giant foxtail (Setaria faberii); assay: Test A preemergence
In short: as §1

[4] = test system: barnyardgrass (Echinochloa crus-galli); assay: Test A preemergence
In short: as §1

[5] = test system: ragweed (common ragweed, Ambrosia elatior); assay: Test A preemergence
In short: as §1

[6] = test system: pigweed (Amaranthus retroflexus); assay: Test A preemergence
[7] = test system: Galium (catchweed bedstraw, Galium aparine); assay: Test A postemergence
In short: as §1

[8] = test system: ryegrass, Italian (Italian ryegrass, Lolium multiflorum); assay: Test A postemergence
In short: as §1

[9] = test system: wheat (Triticum aestivum); assay: Test A postemergence
In short: as §1

Kochia (Kochia scoparia) [10] = assay: Test A postemergence
In short: as §1

[11] = test system: giant foxtail (Setaria faberii); assay: Test A postemergence
In short: as §1

[12] = test system: barnyardgrass (Echinochloa crus-galli); assay: Test A postemergence
In short: as §1

[13] = test system: ragweed (common ragweed, Ambrosia elatior); assay: Test A postemergence
In short: as §1

[14] = test system: blackgrass (Alopecurus myosuroides); assay: Test A postemergence
In short: as §1

[15] = test system: pigweed (Amaranthus retroflexus); assay: Test A postemergence
In short: as §1

corn (Zea mays) = assay: Test A postemergence
In short: as §1

[16] = test system: barnyardgrass (Echinochloa crus-galli); assay: Test B flooded paddy test; conditions: Flood, 250 g ai/ha, 0 to 100 scale where 0 is no effect and 100 is complete control
In short: (§2)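 Greenhouse paddy pots with 2-leaf stage plants received compound by direct addition to floodwater 3 cm deep, kept at that level. Scored visually at 13–15 d versus controls (0 no effect; 100 complete control).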

[17] = test system: ducksalad (Heteranthera limosa); assay: Test B flooded paddy test; conditions: Flood, 250 g ai/ha, 0 to 100 scale where 0 is no effect and 100 is complete control
In short: as §2

rice (Oryra sativa) = assay: Test B flooded paddy test; conditions: Flood, 250 g ai/ha, 0 to 100 scale where 0 is no effect and 100 is complete control
In short: as §2

[18] = test system: sedge, umbrella (small-flower umbrella sedge, Cyperus difformis); assay: Test B flooded paddy test; conditions: Flood, 250 g ai/ha, 0 to 100 scale where 0 is no effect and 100 is complete control
In short: as §2

[19] = 125 g ai/ha, preemergence, 0 to 100 scale (0 no effect, 100 complete control)
[20] = Preemergence, 500 g ai/ha, visual injury approx. 10 d
[21] = 125 g ai/ha, postemergence, visual injury rating on 0 to 100 scale (0 no effect, 100 complete control), approx. 10 d
[22] = 500 g ai/ha, postemergence, 0 to 100 scale, 0 no effect, 100 complete control

O=C1NCC(c2ccc(Br)cc2)C1C(=O)Nc1cccc(F)c1F (stereo not drawn) [Compound 446]
Plant response rating, Ryegrass, Italian [1, 19]: 20
Ryegrass, Italian plant response rating (0 to 100 scale, 0 is no effect, 100 is complete control) [1, 20]: 60
Plant response rating, Kochia (Kochia (Kochia scoparia) [2]; [19]): 50
Kochia plant response rating (0 to 100 scale, 0 is no effect, 100 is complete control) (Kochia (Kochia scoparia) [2]; [20]): 50
Plant response rating, Foxtail, Giant [3, 19]: 90
Foxtail, Giant plant response rating (0 to 100 scale, 0 is no effect, 100 is complete control) [3, 20]: 90
Plant response rating, Barnyardgrass [4, 19]: 90
Barnyardgrass plant response rating (0 to 100 scale, 0 is no effect, 100 is complete control) [4, 20]: 90
Plant response rating, Ragweed [5, 19]: 50
Ragweed plant response rating (0 to 100 scale, 0 is no effect, 100 is complete control) [5, 20]: 50
Plant response rating, Pigweed [6, 19]: 40
Pigweed plant response rating (0 to 100 scale, 0 is no effect, 100 is complete control) [6, 20]: 60
Galium plant response rating [7, 21]: 50
Plant response rating, Galium [7, 22]: 50
Ryegrass, Italian plant response rating [8, 21]: 20
Plant response rating, Ryegrass, Italian [8, 22]: 30
Wheat plant response rating [9, 21]: 0
Plant response rating, Wheat [9, 22]: 50
Kochia plant response rating (Kochia (Kochia scoparia) [10]; [21]): 60
Plant response rating, Kochia (Kochia (Kochia scoparia) [10]; [22]): 60
Foxtail, Giant plant response rating [11, 21]: 90
Plant response rating, Foxtail, Giant [11, 22]: 90
Barnyardgrass plant response rating [12, 21]: 80
Plant response rating, Barnyardgrass [12, 22]: 90
Ragweed plant response rating [13, 21]: 0
Plant response rating, Ragweed [13, 22]: 20
Blackgrass plant response rating [14, 21]: 50
Plant response rating, Blackgrass [14, 22]: 50
Pigweed plant response rating [15, 21]: 50
Plant response rating, Pigweed [15, 22]: 60
Corn plant response rating (corn (Zea mays); [21]): 20
Plant response rating, Corn (corn (Zea mays); [22]): 30
Plant response rating, Barnyardgrass ([16]; 13 to 15 d): 75
Plant response rating, Ducksalad ([17]; 13 to 15 d): 100
Plant response rating, Rice (rice (Oryra sativa); 13 to 15 d): 0
Plant response rating, Sedge, Umbrella ([18]; 13 to 15 d): 0

COc1cccc([C@H]2CN(C)C(=O)[C@@H]2C(=O)Nc2cccc(F)c2F)c1F [Compound 1072]
pest or weed control at 31 g/ha ([1]; Lolium multiflorum, pre-emergence, 240 h, 31 g ai/ha, Preemergence, 0 to 100 scale where 0 is no effect and 100 is complete control, read-out: Ryegrass, Italian plant response rating): 0%
pest or weed control at 125 g/ha ([1]; Lolium multiflorum, pre-emergence, 240 h, 125 g ai/ha, preemergence, 0 to 100 scale where 0 is no effect and 100 is complete control, approx. 10 d, read-out: Ryegrass, Italian plant response rating): 0%
pest or weed control at 31 g/ha (Kochia (Kochia scoparia) [2]; Bassia scoparia, pre-emergence, 240 h, 31 g ai/ha, Preemergence, 0 to 100 scale where 0 is no effect and 100 is complete control, read-out: Kochia plant response rating): 0%
pest or weed control at 125 g/ha (Kochia (Kochia scoparia) [2]; Bassia scoparia, pre-emergence, 240 h, 125 g ai/ha, preemergence, 0 to 100 scale where 0 is no effect and 100 is complete control, approx. 10 d, read-out: Kochia plant response rating): 0%
pest or weed control at 31 g/ha ([3]; Setaria faberi, pre-emergence, 240 h, 31 g ai/ha, Preemergence, 0 to 100 scale where 0 is no effect and 100 is complete control, read-out: Foxtail, Giant plant response rating): 90%
pest or weed control at 125 g/ha ([3]; Setaria faberi, pre-emergence, 240 h, 125 g ai/ha, preemergence, 0 to 100 scale where 0 is no effect and 100 is complete control, approx. 10 d, read-out: Foxtail, Giant plant response rating): 100%
pest or weed control at 31 g/ha ([4]; Echinochloa crus-galli, pre-emergence, 240 h, 31 g ai/ha, Preemergence, 0 to 100 scale where 0 is no effect and 100 is complete control, read-out: Barnyardgrass plant response rating): 90%
pest or weed control at 125 g/ha ([4]; Echinochloa crus-galli, pre-emergence, 240 h, 125 g ai/ha, preemergence, 0 to 100 scale where 0 is no effect and 100 is complete control, approx. 10 d, read-out: Barnyardgrass plant response rating): 100%
pest or weed control at 31 g/ha ([5]; Ambrosia artemisiifolia, pre-emergence, 240 h, 31 g ai/ha, Preemergence, 0 to 100 scale where 0 is no effect and 100 is complete control, read-out: Ragweed plant response rating): 0%
pest or weed control at 125 g/ha ([5]; Ambrosia artemisiifolia, pre-emergence, 240 h, 125 g ai/ha, preemergence, 0 to 100 scale where 0 is no effect and 100 is complete control, approx. 10 d, read-out: Ragweed plant response rating): 0%
pest or weed control at 31 g/ha ([6]; Amaranthus retroflexus, pre-emergence, 240 h, 31 g ai/ha, Preemergence, 0 to 100 scale where 0 is no effect and 100 is complete control, read-out: Pigweed plant response rating): 0%
pest or weed control at 125 g/ha ([6]; Amaranthus retroflexus, pre-emergence, 240 h, 125 g ai/ha, preemergence, 0 to 100 scale where 0 is no effect and 100 is complete control, approx. 10 d, read-out: Pigweed plant response rating): 0%
pest or weed control at 125 g/ha ([7]; Galium, post-emergence, 240 h, 125 g ai/ha, postemergence, visual injury on 0 to 100 scale (0 no effect, 100 complete control), approx. 10 d, read-out: Galium plant response rating): 0%
pest or weed control at 31 g/ha ([7]; Galium, post-emergence, 240 h, Postemergence, 31 g ai/ha, visual injury after approx. 10 d, 0 to 100 scale, 0 no effect, 100 complete control, read-out: Plant response rating, Galium): 0%
pest or weed control at 125 g/ha ([8]; Lolium multiflorum, post-emergence, 240 h, 125 g ai/ha, postemergence, visual injury on 0 to 100 scale (0 no effect, 100 complete control), approx. 10 d, read-out: Ryegrass, Italian plant response rating): 30%
pest or weed control at 31 g/ha ([8]; Lolium multiflorum, post-emergence, 240 h, Postemergence, 31 g ai/ha, visual injury after approx. 10 d, 0 to 100 scale, 0 no effect, 100 complete control, read-out: Plant response rating, Ryegrass, Italian): 0%
plant injury at 125 g/ha ([9]; Triticum aestivum, post-emergence, 240 h, 125 g ai/ha, postemergence, visual injury on 0 to 100 scale (0 no effect, 100 complete control), approx. 10 d, read-out: Wheat plant response rating): 20%
plant injury at 31 g/ha ([9]; Triticum aestivum, post-emergence, 240 h, Postemergence, 31 g ai/ha, visual injury after approx. 10 d, 0 to 100 scale, 0 no effect, 100 complete control, read-out: Plant response rating, Wheat): 0%
pest or weed control at 125 g/ha (Kochia (Kochia scoparia) [10]; Bassia scoparia, post-emergence, 240 h, 125 g ai/ha, postemergence, visual injury on 0 to 100 scale (0 no effect, 100 complete control), approx. 10 d, read-out: Kochia plant response rating): 0%
pest or weed control at 31 g/ha (Kochia (Kochia scoparia) [10]; Bassia scoparia, post-emergence, 240 h, Postemergence, 31 g ai/ha, visual injury after approx. 10 d, 0 to 100 scale, 0 no effect, 100 complete control, read-out: Plant response rating, Kochia): 0%
pest or weed control at 125 g/ha ([11]; Setaria faberi, post-emergence, 240 h, 125 g ai/ha, postemergence, visual injury on 0 to 100 scale (0 no effect, 100 complete control), approx. 10 d, read-out: Foxtail, Giant plant response rating): 90%
pest or weed control at 31 g/ha ([11]; Setaria faberi, post-emergence, 240 h, Postemergence, 31 g ai/ha, visual injury after approx. 10 d, 0 to 100 scale, 0 no effect, 100 complete control, read-out: Plant response rating, Foxtail, Giant): 80%
pest or weed control at 125 g/ha ([12]; Echinochloa crus-galli, post-emergence, 240 h, 125 g ai/ha, postemergence, visual injury on 0 to 100 scale (0 no effect, 100 complete control), approx. 10 d, read-out: Barnyardgrass plant response rating): 100%
pest or weed control at 31 g/ha ([12]; Echinochloa crus-galli, post-emergence, 240 h, Postemergence, 31 g ai/ha, visual injury after approx. 10 d, 0 to 100 scale, 0 no effect, 100 complete control, read-out: Plant response rating, Barnyardgrass): 90%
pest or weed control at 125 g/ha ([13]; Ambrosia artemisiifolia, post-emergence, 240 h, 125 g ai/ha, postemergence, visual injury on 0 to 100 scale (0 no effect, 100 complete control), approx. 10 d, read-out: Ragweed plant response rating): 0%
pest or weed control at 31 g/ha ([13]; Ambrosia artemisiifolia, post-emergence, 240 h, Postemergence, 31 g ai/ha, visual injury after approx. 10 d, 0 to 100 scale, 0 no effect, 100 complete control, read-out: Plant response rating, Ragweed): 0%
pest or weed control at 125 g/ha ([14]; Alopecurus myosuroides, post-emergence, 240 h, 125 g ai/ha, postemergence, visual injury on 0 to 100 scale (0 no effect, 100 complete control), approx. 10 d, read-out: Blackgrass plant response rating): 20%
pest or weed control at 31 g/ha ([14]; Alopecurus myosuroides, post-emergence, 240 h, Postemergence, 31 g ai/ha, visual injury after approx. 10 d, 0 to 100 scale, 0 no effect, 100 complete control, read-out: Plant response rating, Blackgrass): 0%
pest or weed control at 125 g/ha ([15]; Amaranthus retroflexus, post-emergence, 240 h, 125 g ai/ha, postemergence, visual injury on 0 to 100 scale (0 no effect, 100 complete control), approx. 10 d, read-out: Pigweed plant response rating): 0%
pest or weed control at 31 g/ha ([15]; Amaranthus retroflexus, post-emergence, 240 h, Postemergence, 31 g ai/ha, visual injury after approx. 10 d, 0 to 100 scale, 0 no effect, 100 complete control, read-out: Plant response rating, Pigweed): 0%
plant injury at 125 g/ha (corn (Zea mays); Zea mays, post-emergence, 240 h, 125 g ai/ha, postemergence, visual injury on 0 to 100 scale (0 no effect, 100 complete control), approx. 10 d, read-out: Corn plant response rating): 0%
Corn plant response rating (crop injury, 0 = no effect, 100 = complete kill) at 31 g/ha (corn (Zea mays); Zea mays, post-emergence, 240 h, Postemergence, 31 g ai/ha, visual injury after approx. 10 d, 0 to 100 scale, 0 no effect, 100 complete control): 0%
pest or weed control at 250 g/ha ([16]; Echinochloa crus-galli, read-out: Barnyardgrass plant response rating): 70%
pest or weed control at 250 g/ha ([17]; Heteranthera limosa, read-out: Ducksalad plant response rating): 80%
pest or weed control at 250 g/ha (rice (Oryra sativa); Oryza sativa, read-out: Rice plant response rating): 15%
pest or weed control at 250 g/ha ([18]; Cyperus difformis, read-out: Sedge, Umbrella plant response rating): 0%
